Tested on: Hepatitis C virus
Experiment: Antiviral activity against HCV genotype 1b infected in Ava5 cells assessed as inhibition of viral replication after 3 days by blot hybridization analysis
Type: functional, organism-based, Hepacivirus hominis
Conditions: Ava5, 72 h
With O=C(Nc1ncc([N+](=O)[O-])s1)c1cc(Cl)ccc1O the EC50 was 2 µM and the EC90 was 5.9 µM.
Work on CC(=O)Oc1c(C)cccc1C(=O)Nc1ncc(Cl)s1 yielded an EC50 of 0.59 µM and an EC90 of 8.9 µM.
With CC(=O)Oc1ccccc1C(=O)Nc1ncc(C(F)(F)F)s1 the EC50 was greater than 4.3 µM and the EC90 was greater than 8.2 µM.
CC(=O)Oc1ccccc1C(=O)Nc1nc(C(F)(F)F)cs1 showed an EC50 greater than 10 µM and an EC90 greater than 10 µM.
For CCOC(=O)c1cnc(NC(=O)c2ccccc2O)s1, the EC50 was greater than 10 µM and the EC90 was greater than 10 µM.
Work on C[S+]([O-])c1csc(NC(=O)c2ccccc2O)n1 (stereo unspecified) yielded an EC50 of 2 µM and an EC90 of 4.6 µM.
With CC(=O)Oc1ccccc1C(=O)Nc1cccc(F)c1 the EC50 was 3.8 µM and the EC90 was 11 µM.
With O=C(Nc1cccc(F)c1)c1ccccc1O the EC50 was 0.13 µM and the EC90 was 0.83 µM.
For O=C(Nc1ccccc1Cl)c1ccccc1O, the EC50 was 3.8 µM and the EC90 was 21 µM.
With COC(=O)c1ccc(NC(=O)c2ccccc2OC(C)=O)cc1 the EC50 was 0.06 µM and the EC90 was 0.46 µM.
CS(=O)(=O)c1ccc(NC(=O)c2ccccc2O)cc1 gave an EC50 greater than 10 µM and an EC90 greater than 10 µM.
CS(=O)(=O)c1cnc([N-]C(=O)c2ccccc2O)s1.[Na+] gave an EC50 of 1.5 µM and an EC90 of 5.2 µM.
O=C(Nc1cc(C(F)(F)F)cc(C(F)(F)F)c1)c1ccccc1O showed an EC50 of 3.5 µM and an EC90 of 8.1 µM.
With O=C(Nc1cc(C(F)(F)F)ccc1Cl)c1ccccc1O the EC50 was 0.01 µM and the EC90 was 0.03 µM.
Work on O=C(Nc1nc(-c2ccccc2)cs1)c1ccccc1O yielded an EC50 greater than 3.5 µM and an EC90 of no less than 10 µM.
O=C(Nc1ccc([N+](=O)[O-])cc1Cl)c1cc(Cl)ccc1O [NICLOSAMIDE] showed an EC50 of 0.16 µM and an EC90 of 0.7 µM.
CC(=O)Oc1ccccc1C(=O)Nc1ncc([N+](=O)[O-])s1 [NITAZOXANIDE] gave an EC50 of 0.21 µM and an EC90 of 0.93 µM.
Work on O=C(Nc1ncc([N+](=O)[O-])s1)c1ccccc1O [TIZOXANIDE] yielded an EC50 of 0.15 µM and an EC90 of 0.81 µM.

Tested on: not listed separately
Experiment: Cytotoxicity against human Ava5 cells after 3 days by neutral red dye assay
Type: cell-based
Conditions: not given
O=C(Nc1ncc([N+](=O)[O-])s1)c1cc(Cl)ccc1O gave a CC50 at 72 h greater than 100 µM.
In the case of CC(=O)Oc1c(C)cccc1C(=O)Nc1ncc(Cl)s1, the CC50 at 72 h is reported as 12 µM.
For CC(=O)Oc1ccccc1C(=O)Nc1ncc(C(F)(F)F)s1, the CC50 at 72 h was 1.7 µM.
Work on CC(=O)Oc1ccccc1C(=O)Nc1nc(C(F)(F)F)cs1 yielded a CC50 at 72 h of 2.8 µM.
Compound CCOC(=O)c1cnc(NC(=O)c2ccccc2O)s1 has a CC50 at 72 h of 14 µM.
C[S+]([O-])c1csc(NC(=O)c2ccccc2O)n1 (stereo unspecified) showed a CC50 at 72 h of 63 µM.
Compound CC(=O)Oc1ccccc1C(=O)Nc1cccc(F)c1 has a CC50 at 72 h greater than 100 µM.
For O=C(Nc1cccc(F)c1)c1ccccc1O, the CC50 at 72 h was 3.4 µM.
Compound O=C(Nc1ccccc1Cl)c1ccccc1O has a CC50 at 72 h of 72 µM.
COC(=O)c1ccc(NC(=O)c2ccccc2OC(C)=O)cc1 showed a CC50 at 72 h of 4.4 µM.
CS(=O)(=O)c1ccc(NC(=O)c2ccccc2O)cc1 gave a CC50 at 72 h greater than 100 µM.
In the case of CS(=O)(=O)c1cnc([N-]C(=O)c2ccccc2O)s1.[Na+], the CC50 at 72 h is reported as 43 µM.
Compound O=C(Nc1cc(C(F)(F)F)cc(C(F)(F)F)c1)c1ccccc1O has a CC50 at 72 h of 3.7 µM.
Work on O=C(Nc1cc(C(F)(F)F)ccc1Cl)c1ccccc1O yielded a CC50 at 72 h of 0.33 µM.
O=C(Nc1nc(-c2ccccc2)cs1)c1ccccc1O showed a CC50 at 72 h of 14 µM.
O=C(Nc1ccc([N+](=O)[O-])cc1Cl)c1cc(Cl)ccc1O [NICLOSAMIDE] showed a CC50 at 72 h of 10 µM.
With CC(=O)Oc1ccccc1C(=O)Nc1ncc([N+](=O)[O-])s1 [NITAZOXANIDE] the CC50 at 72 h was 35 µM.
O=C(Nc1ncc([N+](=O)[O-])s1)c1ccccc1O [TIZOXANIDE] gave a CC50 at 72 h of 15 µM.

Tested on: not listed separately
Experiment: Selectivity index, ratio of CC50 for human Ava5 cells to EC50 for HCV genotype 1b infected in human Ava5 cells
Conditions: not given
With O=C(Nc1ncc([N+](=O)[O-])s1)c1cc(Cl)ccc1O the “Ratio CC50/EC50” value was greater than 50.
With CC(=O)Oc1c(C)cccc1C(=O)Nc1ncc(Cl)s1 the “Ratio CC50/EC50” value was 11.
In the case of CC(=O)Oc1ccccc1C(=O)Nc1ncc(C(F)(F)F)s1, the “Ratio CC50/EC50” value is reported as 0.9.
In the case of C[S+]([O-])c1csc(NC(=O)c2ccccc2O)n1 (stereo unspecified), the “Ratio CC50/EC50” value is reported as 32.
With CC(=O)Oc1ccccc1C(=O)Nc1cccc(F)c1 the “Ratio CC50/EC50” value was 26.
For O=C(Nc1cccc(F)c1)c1ccccc1O, the “Ratio CC50/EC50” value was 26.
With O=C(Nc1ccccc1Cl)c1ccccc1O the “Ratio CC50/EC50” value was 19.
In the case of COC(=O)c1ccc(NC(=O)c2ccccc2OC(C)=O)cc1, the “Ratio CC50/EC50” value is reported as 76.
With CS(=O)(=O)c1cnc([N-]C(=O)c2ccccc2O)s1.[Na+] the “Ratio CC50/EC50” value was 29.
For O=C(Nc1cc(C(F)(F)F)cc(C(F)(F)F)c1)c1ccccc1O, the “Ratio CC50/EC50” value was 1.1.
In the case of O=C(Nc1cc(C(F)(F)F)ccc1Cl)c1ccccc1O, the “Ratio CC50/EC50” value is reported as 65.2.
With O=C(Nc1nc(-c2ccccc2)cs1)c1ccccc1O the “Ratio CC50/EC50” value was 7.4.
For O=C(Nc1ccc([N+](=O)[O-])cc1Cl)c1cc(Cl)ccc1O [NICLOSAMIDE], the “Ratio CC50/EC50” value was 16.2.
With CC(=O)Oc1ccccc1C(=O)Nc1ncc([N+](=O)[O-])s1 [NITAZOXANIDE] the “Ratio CC50/EC50” value was 143.
For O=C(Nc1ncc([N+](=O)[O-])s1)c1ccccc1O [TIZOXANIDE], the “Ratio CC50/EC50” value was 100.

Tested on: Hepatitis C virus
Experiment: Antiviral activity against HCV genotype 1a infected in Huh7.5 cells assessed as inhibition of viral replication after 3 days by blot hybridization analysis
Type: functional, organism-based, Hepacivirus hominis
Conditions: subtype 1a, Huh7.5, 72 h
CC(=O)Oc1c(C)cccc1C(=O)Nc1ncc(Cl)s1 showed an EC50 of 1 µM and an EC90 of 3.8 µM.
For CC(=O)Oc1ccccc1C(=O)Nc1ncc(C(F)(F)F)s1, the EC50 was greater than 10 µM and the EC90 was greater than 10 µM.
With O=C(Nc1nc(-c2ccccc2)cs1)c1ccccc1O the EC50 was greater than 10 µM and the EC90 was greater than 10 µM.
For CC(=O)Oc1ccccc1C(=O)Nc1ncc([N+](=O)[O-])s1 [NITAZOXANIDE], the EC50 was 0.33 µM and the EC90 was 1.1 µM.
Work on O=C(Nc1ncc([N+](=O)[O-])s1)c1ccccc1O [TIZOXANIDE] yielded an EC50 of 0.25 µM and an EC90 of 1 µM.

Tested on: not listed separately
Experiment: Cytotoxicity against human Huh7.5 cells after 3 days by neutral red dye assay
Type: cell-based, Huh-7
Conditions: not given
CC(=O)Oc1c(C)cccc1C(=O)Nc1ncc(Cl)s1 showed a CC50 at 72 h of 14 µM.
CC(=O)Oc1ccccc1C(=O)Nc1ncc(C(F)(F)F)s1 showed a CC50 at 72 h of 14 µM.
Compound O=C(Nc1nc(-c2ccccc2)cs1)c1ccccc1O has a CC50 at 72 h of 29 µM.
With CC(=O)Oc1ccccc1C(=O)Nc1ncc([N+](=O)[O-])s1 [NITAZOXANIDE] the CC50 at 72 h was 49 µM.
For O=C(Nc1ncc([N+](=O)[O-])s1)c1ccccc1O [TIZOXANIDE], the CC50 at 72 h was 14 µM.

Tested on: not listed separately
Experiment: Selectivity index, ratio of CC50 for human Huh7.5 cells to EC50 for HCV genotype 1a infected in human Huh7.5 cells
Set-up: species or system Huh-7
Conditions: not given
With CC(=O)Oc1c(C)cccc1C(=O)Nc1ncc(Cl)s1 the “Ratio CC50/EC50” value was 14.
In the case of CC(=O)Oc1ccccc1C(=O)Nc1ncc([N+](=O)[O-])s1 [NITAZOXANIDE], the “Ratio CC50/EC50” value is reported as 149.
In the case of O=C(Nc1ncc([N+](=O)[O-])s1)c1ccccc1O [TIZOXANIDE], the “Ratio CC50/EC50” value is reported as 56.

Tested on: not listed separately
Experiment: Aqueous solubility of the compound
Type: physicochemical
Conditions: buffer
In the case of CC(=O)Oc1ccccc1C(=O)Nc1ncc(C(F)(F)F)s1, the solubility is reported as “soluble”.
With CC(=O)Oc1ccccc1C(=O)Nc1nc(C(F)(F)F)cs1 the solubility was “soluble”.
For O=C(Nc1cc(C(F)(F)F)cc(C(F)(F)F)c1)c1ccccc1O, the solubility was “soluble”.
In the case of O=C(Nc1ccc([N+](=O)[O-])cc1Cl)c1cc(Cl)ccc1O [NICLOSAMIDE], the solubility is reported as “soluble”.

Reference: ChEMBL document CHEMBL1938327, “Thiazolides as novel antiviral agents. 2. Inhibition of hepatitis C virus replication” (J Med Chem, 2011)
